From ChEMBL document CHEMBL1159082, “Phenylacetic acid regioisomers possessing a N-difluoromethyl-1,2-dihydropyrid-2-one pharmacophore: evaluation as dual inhibitors of cyclooxygenases and 5-lipoxygenase with anti-inflammatory activity” (Bioorg Med Chem Lett, 2010)

Columns and labels:
[1] = Inhibition of potato 5-Lipoxygenase by enzyme immuno assay; design: species or system Solanum tuberosum
[2] = biological target: T1, Prostaglandin G/H synthase 1 (Ovis aries, UniProt P05979)
T1 sequence (P05979 whole entry): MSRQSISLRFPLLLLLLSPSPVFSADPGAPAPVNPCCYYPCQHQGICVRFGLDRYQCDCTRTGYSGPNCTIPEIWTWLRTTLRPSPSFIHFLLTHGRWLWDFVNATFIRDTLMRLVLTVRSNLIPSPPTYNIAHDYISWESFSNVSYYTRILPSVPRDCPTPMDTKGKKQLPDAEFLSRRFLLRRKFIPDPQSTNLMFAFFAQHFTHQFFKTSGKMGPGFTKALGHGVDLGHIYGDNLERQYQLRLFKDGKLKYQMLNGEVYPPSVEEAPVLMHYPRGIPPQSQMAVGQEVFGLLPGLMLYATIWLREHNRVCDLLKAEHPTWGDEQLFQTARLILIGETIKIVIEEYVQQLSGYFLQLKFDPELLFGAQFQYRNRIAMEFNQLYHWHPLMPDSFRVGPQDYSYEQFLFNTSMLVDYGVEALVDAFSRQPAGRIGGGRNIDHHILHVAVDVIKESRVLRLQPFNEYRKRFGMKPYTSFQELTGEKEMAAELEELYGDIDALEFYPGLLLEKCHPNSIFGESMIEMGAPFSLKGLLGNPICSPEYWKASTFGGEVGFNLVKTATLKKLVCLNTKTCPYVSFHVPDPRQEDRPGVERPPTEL
Description: Inhibition of ovine COX1 by enzyme immuno assay

[3] = biological target: T2, Prostaglandin G/H synthase 2 (Homo sapiens, UniProt P35354); test: Inhibition of human recombinant COX2 by enzyme immuno assay
T2 sequence (P35354 whole entry): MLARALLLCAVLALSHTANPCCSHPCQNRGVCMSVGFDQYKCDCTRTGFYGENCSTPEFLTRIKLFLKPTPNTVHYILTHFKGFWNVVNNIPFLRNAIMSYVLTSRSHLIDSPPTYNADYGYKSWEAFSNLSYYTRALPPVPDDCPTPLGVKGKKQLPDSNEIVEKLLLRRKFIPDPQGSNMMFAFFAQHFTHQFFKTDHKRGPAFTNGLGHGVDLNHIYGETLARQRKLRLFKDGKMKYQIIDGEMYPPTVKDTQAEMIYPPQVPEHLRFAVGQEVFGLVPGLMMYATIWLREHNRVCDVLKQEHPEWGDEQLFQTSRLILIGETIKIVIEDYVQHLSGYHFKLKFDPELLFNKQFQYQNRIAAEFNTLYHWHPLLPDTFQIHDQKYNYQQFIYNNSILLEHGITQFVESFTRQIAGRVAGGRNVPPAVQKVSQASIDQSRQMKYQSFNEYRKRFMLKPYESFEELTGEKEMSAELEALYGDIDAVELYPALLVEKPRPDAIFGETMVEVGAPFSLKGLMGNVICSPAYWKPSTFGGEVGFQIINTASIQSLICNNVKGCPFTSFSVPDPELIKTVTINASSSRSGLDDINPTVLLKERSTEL

Rattus norvegicus [4] = test: Antiinflammatory activity against carrageenan-induced paw edema in rat at 150 mg/kg, po relative to ibuprofen; format: functional
Rattus norvegicus [5] = test: Antiinflammatory activity against carrageenan-induced paw edema in rat at 150 mg/kg, ip; format: functional; conditions: route intraperitoneal
Rattus norvegicus [6] = test: Antiinflammatory activity against carrageenan-induced paw edema in rat at 100 mg/kg, po; format: functional
Rattus norvegicus [7] = test: Antiinflammatory activity against carrageenan-induced paw edema in rat at 30 mg/kg, po; format: functional
Rattus norvegicus [8] = test: Antiinflammatory activity against carrageenan-induced paw edema in po dosed rat; format: functional

| SMILES | IC50 [1] [µM] | IC50 [2] [µM] | IC50 [3] [µM] | also measured |
| --- | --- | --- | --- | --- |
| O=C(O)Cc1ccc(-c2ccn(C(F)F)c(=O)c2)cc1 | 3.47 | 9.6 | 0.89 |  |
| CC(C(=O)O)c1ccccc1-c1ccn(C(F)F)c(=O)c1 (configuration not stated) | 2 | > 100 | 2.6 |  |
| O=C(O)Cc1ccccc1-c1ccn(C(F)F)c(=O)c1 | 0.2 | 5.5 | 0.86 | inhibition in vivo at 150 mg/kg (Rattus norvegicus [4]): 19.9%; inhibition in vivo at 150 mg/kg (Rattus norvegicus [5]): 18.5% |
| CC(C(=O)O)c1ccc(-c2ccn(C(F)F)c(=O)c2)cc1 (configuration not stated) | 3 | 15.3 | 2.4 |  |
| O=C(O)Cc1cccc(-c2ccn(C(F)F)c(=O)c2)c1 | 0.37 | > 100 | 11.1 | inhibition in vivo at 100 mg/kg (Rattus norvegicus [6]): 11.2% |
| O=C(O)/C=C/c1ccc(O)c(O)c1 [CAFFEIC ACID] | 4 |  |  | inhibition in vivo at 30 mg/kg (Rattus norvegicus [7]): 8.2% |
| CC(C)Cc1ccc(C(C)C(=O)O)cc1 (configuration not stated) [IBUPROFEN] |  |  |  | ED50 (Rattus norvegicus [8]): 67.4 mg/kg |
| CC(Cc1ccc(O)c(O)c1)C(C)Cc1ccc(O)c(O)c1 (configuration not stated) [NORDIHYDROGUAIARETIC ACID] |  |  |  | inhibition in vivo at 30 mg/kg (Rattus norvegicus [7]): 15.1% |
